According to patent publication US12435060B2, “Acylamino bridged heterocyclic compound, and composition and application thereof” (BEIJING SCITECH-MQ PHARMACEUTICALS LIMITED, priority 2019, dated 2025):

System: HT29 cells
Assay: Inhibition of cell necrosis (CCK8 method), induced programmed necrosis of HT29 cells
Assay type: cell-based
Conditions: Homo sapiens, HT-29; rescue from necrosis induced by TNF-α 20 ng/mL, AT-406 1 μM, Z-VAD-FMK 20 μM; 16-20 hours; CCK-8, OD 450 nm
In short: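 HT29 cells in McCOY's 5A with 10% FBS were pre-treated for 30 min with compound (9 fourfold steps, 25000 to 0.38 nM final, 0.25% DMSO). Necrosis was then induced with TNF-α 20 ng/mL, AT-406 1 μM and Z-VAD-FMK 20 μM for 16-20 h. Viability was read by CCK-8 OD450, normalized between uninduced and induced wells, and IC50 was curve-fitted.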

Compound | IC50 [µM]
CC(C)(O)CCCOc1ccc(F)c(-c2cc(NC(=O)c3nnc(CC4CCCCC4)[nH]3)ncc2F)c1 [Example 319, 5-(cyclohexylmethyl)-N-(5-fluoro-4-(2-fluoro-5-((4-hydroxy-4-methylpentyl)oxy)phenyl)pyridin-2-yl)-4H-1,2,4-triazole-3-carboxamide] | ≤ 0.1
O=C(Nc1cc(-c2cc(OCCCCCO)ccc2C(F)(F)F)ccn1)c1nnc(CC2CCCCC2)[nH]1 [Example 278, 5-(cyclohexylmethyl)-N-(4-(5-((5-hydroxypentyl)oxy)-2-(trifluoromethyl)phenyl)pyridin-2-yl)-4H-1,2,4-triazole-3-carboxamide] | ≤ 0.1
Cc1ccc(OCCCC(C)(C)O)cc1-c1ccnc(NC(=O)c2nnc(CC3CC4CCC3C4)[nH]2)c1 (centres unmarked) [Example 179, 5-(bicyclo[2.2.1]heptan-2-ylmethyl)-N-(4-(5-((4-hydroxy-4-methylpentyl)oxy)-2-methylphenyl)pyridin-2-yl)-4H-1,2,4-triazole-3-carboxamide] | ≤ 0.1
CC(C)(O)CCCOc1ccc(C(F)(F)F)c(-c2ccnc(NC(=O)c3nnc(Cc4ccc(F)cc4)[nH]3)c2)c1 [Example 257, 5-(4-fluorobenzyl)-N-(4-(5-((4-hydroxy-4-methylpentyl)oxy)-2-(trifluoromethyl)phenyl)pyridin-2-yl)-4H-1,2,4-triazole-3-carboxamide] | ≤ 0.1
COCCOc1ccc(Cl)c(-c2ccnc(NC(=O)c3nnc(Cc4ccccc4F)[nH]3)c2)c1 [Example 380, 5-(2-fluorobenzyl)-N-(4-(2-chloro-5-(2-methoxyethoxy)phenyl)pyridin-2-yl)-4H-1,2,4-triazole-3-carboxamide] | ≤ 0.1
COc1cnccc1-c1ccnc(NC(=O)c2nnc(Cc3ccccc3)[nH]2)c1 [Example 25, 5-benzyl-N-(3′-methoxy-[4,4′-bipyridin]-2-yl)-4H-1,2,4-triazole-3-carboxamide] | 1 to 10
O=C(Nc1cc(-c2cc(OCCC3CCOCC3)ccc2Cl)c(Cl)cn1)c1nnc(Cc2ccccc2F)[nH]1 [Example 430, N-(5-chloro-4-(2-chloro-5-(2-(tetrahydro-2H-pyran-4-yl)ethoxy)phenyl)pyridin-2-yl)-5-(2-fluorobenzyl)-4H-1,2,4-triazole-3-carboxamide] | 0.1 to 1
CC(C)(O)CCCOc1ccc(C(F)(F)F)c(-c2cc(NC(=O)c3nnc(Cc4ccccc4)[nH]3)ncn2)c1 [Example 450, 5-benzyl-N-(6-(5-((4-hydroxy-4-methylpentyl)oxy)-2-(trifluoromethyl)phenyl)pyrimidin-4-yl)-4H-1,2,4-triazole-3-carboxamide] | ≤ 0.1
CCC(O)(CC)CCCOc1ccc(C)c(-c2ccnc(NC(=O)c3nnc(Cc4ccccc4)[nH]3)c2)c1 [Example 165] | ≤ 0.1
Cc1ccc(OCCN2CCCCC2)cc1-c1ccnc(NC(=O)c2nnc(Cc3ccc(F)cc3F)[nH]2)c1 [Example 230, 5-(2,4-difluorobenzyl)-N-(4-(2-methyl-5-(2-(piperidin-1-yl)ethoxy)phenyl)pyridin-2-yl)-4H-1,2,4-triazole-3-carboxamide] | 0.1 to 1
Cc1ccc(OCCOC(C)(C)C)cc1-c1ccnc(NC(=O)c2nnc(CC3CCCCC3)[nH]2)c1 [Example 77, N-(4-(5-(2-(tert-butoxy)ethoxy)-2-methylphenyl)pyridin-2-yl)-5-(cyclohexylmethyl)-4H-1,2,4-triazole-3-carboxamide] | ≤ 0.1
Cc1ccc(OC2CCC2)cc1-c1ccnc(NC(=O)c2nnc(Cc3ccccc3)[nH]2)c1 [Example 156, 5-benzyl-N-(4-(5-cyclobutoxy-2-methylphenyl)pyridin-2-yl)-4H-1,2,4-triazole-3-carboxamide] | 0.1 to 1
Cc1ccc(OCC2CCOCC2)cc1-c1ccnc(NC(=O)c2nnc(Cc3ccccc3)[nH]2)c1 [Example 67, 5-benzyl-N-(4-(2-methyl-5-((tetrahydro-2H-pyran-4-yl)methoxy)phenyl)pyridin-2-yl)-4H-1,2,4-triazole-3-carboxamide] | ≤ 0.1
O=C(Nc1cc(-c2cc(OCCCCCO)ccc2Cl)ccn1)c1nnc(Cc2ccccc2)[nH]1 [Example 375, 5-benzyl-N-(4-(2-chloro-5-((5-hydroxypentyl)oxy)phenyl)pyridin-2-yl)-4H-1,2,4-triazole-3-carboxamide] | ≤ 0.1
Cc1cc(C(C)(C)O)ccc1-c1ccnc(NC(=O)c2nnc(Cc3ccccc3)[nH]2)c1 [Example 161, 5-benzyl-N-(4-(4-(2-hydroxypropan-2-yl)-2-methylphenyl)pyridin-2-yl)-4H-1,2,4-triazole-3-carboxamide] | 0.1 to 1
O=C(Nc1cc(-c2cc(OCC3CCOCC3)ccc2F)c(F)cn1)c1nnc(Cc2ccccc2F)[nH]1 [Example 327, N-(5-fluoro-4-(2-fluoro-5-((tetrahydro-2H-pyran-4-yl)methoxy)phenyl)pyridin-2-yl)-5-(2-fluorobenzyl)-4H-1,2,4-triazole-3-carboxamide] | ≤ 0.1

Compound | IC50 [µM]
CC(C)(O)CCCOc1ccc(Cl)c(-c2cc(NC(=O)c3nnc(CC4CCCC4)[nH]3)ncn2)c1 [Example 464, 5-(cyclopentylmethyl)-N-(6-(2-chloro-5-((4-hydroxy-4-methylpentyl)oxy)phenyl)pyrimidin-4-yl)-4H-1,2,4-triazole-3-carboxamide] | ≤ 0.1
Cc1c(OCCO)cccc1-c1ccnc(NC(=O)c2nnc(Cc3ccccc3)[nH]2)c1 [Example 95, 5-benzyl-N-(4-(3-(2-hydroxyethoxy)-2-methylphenyl)pyridin-2-yl)-4H-1,2,4-triazole-3-carboxamide] | 0.1 to 1
COCCCOc1ccc(C)c(-c2ccnc(NC(=O)c3nnc(C(C)c4ccccc4)o3)c2)c1 (centres unmarked) [Example 143, N-(4-(5-(3-methoxypropoxy)-2-methylphenyl)pyridin-2-yl)-5-(1-phenylethyl)-1,3,4-oxadiazol-2-carboxamide] | 0.1 to 1
COc1ncccc1-c1ccnc(NC(=O)c2nnc(Cc3ccccc3)[nH]2)c1 [Example 21, 5-benzyl-N-(2-methoxy-[3,4′-bipyridin]-2′-yl)-4H-1,2,4-triazole-3-carboxamide] | 1 to 10
Cc1ccc(OCCC2CCOCC2)cc1-c1cc(NC(=O)c2nnc(Cc3ccccc3F)[nH]2)ncc1C [Example 253, 5-(2-fluorobenzyl)-N-(5-methyl-4-(2-methyl-5-(2-(tetrahydro-2H-pyran-4-yl)ethoxy)phenyl)pyridin-2-yl)-4H-1,2,4-triazole-3-carboxamide] | 0.1 to 1
COCCOc1ccc(Cl)c(-c2ccnc(NC(=O)c3nnc(Cc4ccccc4)[nH]3)c2)c1 [Example 379, 5-benzyl-N-(4-(2-chloro-5-(2-methoxyethoxy)phenyl)pyridin-2-yl)-4H-1,2,4-triazole-3-carboxamide] | 0.1 to 1
Cc1ccc(OCC(N)=O)cc1-c1ccnc(NC(=O)c2nnc(Cc3ccccc3)[nH]2)c1 [Example 116, N-(4-(5-(2-amino-2-oxoethoxy)-2-methylphenyl)pyridin-2-yl)-5-benzyl-4H-1,2,4-triazole-3-carboxamide] | 0.1 to 1
CC(C)(O)CCCOc1ccc(Cl)c(-c2ccnc(NC(=O)c3nnc(Cc4ccc(F)c(F)c4F)[nH]3)c2)c1 [Example 351, N-(4-(2-chloro-5-((4-hydroxy-4-methylpentyl)oxy)phenyl)pyridin-2-yl)-5-(2,3,4-trifluorobenzyl)-4H-1,2,4-triazole-3-carboxamide] | 0.1 to 1
Cc1ccc(OCCCC(C)(C)O)cc1-c1cc(NC(=O)c2nnc(CC3CCCCC3)[nH]2)ncc1C [Example 241, 5-(cyclohexylmethyl)-N-(4-(5-((4-hydroxy-4-methylpentyl)oxy)-2-methylphenyl)-5-methylpyridin-2-yl)-4H-1,2,4-triazole-3-carboxamide] | 0.1 to 1
CC(C)(O)CCCOc1ccc(Cl)c(-c2ccnc(NC(=O)c3nnc(Cc4ccccc4)[nH]3)c2)c1 [Example 337, 5-benzyl-N-(4-(5-((4-hydroxy-4-methylpentyl)oxy)-2-chlorophenyl)pyridin-2-yl)-4H-1,2,4-triazole-3-carboxamide] | ≤ 0.1
CCOc1ccc(OC)c(-c2ccnc(NC(=O)c3nnc(Cc4ccccc4)[nH]3)c2)c1 [Example 107, 5-benzyl-N-(4-(5-ethoxy-2-methoxyphenyl)pyridin-2-yl)-4H-1,2,4-triazole-3-carboxamide] | 1 to 10
Cc1ccc(C(=O)NCCC(C)(C)O)cc1-c1ccnc(NC(=O)c2nnc(CC3CCCC3)[nH]2)c1 [Example 488, 5-(cyclopentylmethyl)-N-(4-(5-((3-hydroxyl-3-methylbutyl)carbamoyl)-2-methylphenyl)pyridin-2-yl)-4H-1,2,4-triazole-3-carboxamide] | ≤ 0.1
Cc1ccc(OCCCC(C)(C)O)cc1-c1cc(NC(=O)c2nnc(Cc3ccccc3F)[nH]2)ncn1 [Example 433, 5-(2-fluorobenzyl)-N-(6-(5-((4-hydroxy-4-methylpentyl)oxy)-2-methylphenyl)pyrimidin-4-yl)-4H-1,2,4-triazole-3-carboxamide] | ≤ 0.1
O=C(Nc1cc(-c2cc(OCC3CCOCC3)ccc2Cl)ccn1)c1nnc(Cc2ccccc2)[nH]1 [Example 399, 5-benzyl-N-(4-(2-chloro-5-((tetrahydro-2H-pyran-4-yl)methoxy)phenyl)pyridin-2-yl)-4H-1,2,4-triazole-3-carboxamide] | ≤ 0.1
Cc1cnc(NC(=O)c2nnc(CC3CCCCC3)[nH]2)cc1-c1cc(OCCC2CCOCC2)ccc1F [Example 336, 5-(cyclohexylmethyl)-N-(4-(2-fluoro-5-(2-(tetrahydro-2H-pyran-4-yl)ethoxy)phenyl)-5-methylpyridin-2-yl)-4H-1,2,4-triazole-3-carboxamide] | 1 to 10
CC(C)(O)CCCOc1ccc(Cl)c(-c2ccnc(NC(=O)c3nnc(Cc4cc(F)c(F)cc4F)[nH]3)c2)c1 [Example 355, N-(4-(2-chloro-5-((4-hydroxy-4-methylpentyl)oxy)phenyl)pyridin-2-yl)-5-(2,4,5-trifluorobenzyl)-4H-1,2,4-triazole-3-carboxamide] | 0.1 to 1
